Test results published in patent US6521619B2, “Aryl phenylcyclopropyl sulfide derivatives and their use as cell adhesion inhibiting anti-inflammatory and immune suppressive agents” (Icos Corporation, priority 2000, dated 2003).

How the values were obtained:
[1] = molecular target: T1, ICAM-1/LFA-1 interaction (recombinant LFA-1, biotinylated recombinant ICAM-1/Ig) (Homo sapiens, UniProt P20701); assay: ICAM-1/LFA-1 Biochemical Interaction Assay (46A); type: binding; conditions: for inhibition at 2 µM: read-out: % inhibition
T1 construct: Recombinant LFA-1 (100 mL of 0.7 mg/ml, ICOS Corporation) in D-PBS is then added to each well
Method: Compounds that antagonize the interaction between ICAM-1 and LFA-1 can be identified, and their activities quantitated, using both biochemical and cell-based adhesion assays. A primary biochemical assay, described below as assay 46A, was utilized to measure the ability of the present compounds to block the interaction between the integrin LFA-1 and its adhesion partner ICAM-1.
46A. ICAM-1/LFA-1 Biochemical Interaction Assay
In the biochemical assay, 100 mL of anti-LFA-1 antibody (ICOS Corporation) at a concentration of 5 mg/ml in Dulbecco's phosphate-buffered saline (D-PBS) is used to coat wells of a 96-well microtiter plate overnight at 4° C. The wells are then washed twice with wash buffer (D-PBS w/o Ca^++ or Mg^++, 0.05% Tween 20) and blocked by addition of 200 mL of D-PBS, 5% fish skin gelatin. Recombinant LFA-1 (100 mL of 0.7 mg/ml, ICOS Corporation) in D-PBS is then added to each well. Incubation continues for 1 hour at room temperature and the wells are washed twice with wash buffer. Serial dilutions of compounds being assayed as ICAM-1/LFA-1 antagonists, prepared as 10 mM stock solutions in dimethyl sulfoxide (DMSO), are diluted in D-PBS, 2 mM MgCl2, 1% fish skin gelatin and 50 mL of each dilution added to duplicate wells. This is followed by addition of […] of 0.8 mg/ml biotinylated recombinant ICAM-1/Ig (ICOS Corporation) to the wells and the plates are incubated at room temperature for 1 hour The wells are then washed twice with wash buffer and 100 mL of Europium-labeled Streptavidin (Wallac Oy) diluted 1:100 in Delfia assay buffer (Wallac Oy) are added to the wells. Incubation proceeds for 1 hour at room temperature. […] Incubation proceeds for 5 minutes with constant mixing.
where “background” refers to wells that are not coated with anti-LFA-1 antibody.

[2] = system: JY-8 cells (expressing LFA-1) adhering to immobilized ICAM-1; assay: ICAM-1/JY-8 Cell Adhesion Assay (46B); type: cell-based, human; conditions: JY-8 cell adhesion to ICAM-1; for inhibition at 1 µM / inhibition at 4 µM / inhibition at 2 µM: Homo sapiens; for inhibition at 1 µM: @ 1 μM compound (cell); for inhibition at 4 µM: @ 4 μM compound; for % inhibition / inhibition at 2 µM: @ 2 μM compound (cell)
Method: Biologically relevant activity of the compounds in this invention was confirmed using a cell-based adhesion assay, (described below as assay 46B) which measured the ability of the present compounds to block the adherence of JY-8 cells (a human EBV-transformed B cell line expressing LFA-1 on its surface) to immobilized ICAM-1.
46B. ICAM-1 /JY-8 Cell Adhesion Assay
For measurement of inhibitory activity in the cell-based adhesion assay, 96-well microtiter plates are coated with 70 μL of recombinant ICAM-1/g (ICOS Corporation) at a concentration of 5 μg/mL in D-PBS w/o Ca^++ or Mg^++ overnight at 4° C. The wells are then washed twice with D-PBS and blocked by addition of 200 μL of D-PBS, 5% fish skin gelatin by incubation for 1 hour at room temperature. Fluorescent tagged JY-8 cells (a human EBV-transformed B cell line expressing LFA-1 on its surface; 50 μL at 2×10^6 cells/ml in RPMI 1640 (standard cell culture medium)/1% fetal bovine serum) are added to the wells. For fluorescent labeling of JY-8 cells, 5×10^6 cells washed once in RPMI 1640 are resuspended in 1 mL of RPMI 1640 containing 2 μM Calceiun AM (MolecularProbes), are incubated at 37° C for 30 minutes and washed once with RPMI-1640/1% fetal bovine serum. Dilutions of compounds to be assayed for ICAM-1/LFA-1 antagonistic activity are prepared in RPMI-1640/1% fetal bovine serum from 10 mM stock solutions in DMSO and 50 μL are added to duplicate wells. Microtiter plates are incubated for 45 minutes at room temperature and the wells are washed gently once with RPMI-1640/1% fetal bovine serum. Fluorescent intensity is measured in a fluorescent plate reader with an excitation wavelength at 485 nm and an emission wavelength at 530 nm. The percent inhibition of a candidate compound at a given concentration is calculated using the following equation: [formula]
and these concentration/inhibition data are used to generate dose response curves, from which IC50 values are derived.

T1 sequence (P20701 26-1170): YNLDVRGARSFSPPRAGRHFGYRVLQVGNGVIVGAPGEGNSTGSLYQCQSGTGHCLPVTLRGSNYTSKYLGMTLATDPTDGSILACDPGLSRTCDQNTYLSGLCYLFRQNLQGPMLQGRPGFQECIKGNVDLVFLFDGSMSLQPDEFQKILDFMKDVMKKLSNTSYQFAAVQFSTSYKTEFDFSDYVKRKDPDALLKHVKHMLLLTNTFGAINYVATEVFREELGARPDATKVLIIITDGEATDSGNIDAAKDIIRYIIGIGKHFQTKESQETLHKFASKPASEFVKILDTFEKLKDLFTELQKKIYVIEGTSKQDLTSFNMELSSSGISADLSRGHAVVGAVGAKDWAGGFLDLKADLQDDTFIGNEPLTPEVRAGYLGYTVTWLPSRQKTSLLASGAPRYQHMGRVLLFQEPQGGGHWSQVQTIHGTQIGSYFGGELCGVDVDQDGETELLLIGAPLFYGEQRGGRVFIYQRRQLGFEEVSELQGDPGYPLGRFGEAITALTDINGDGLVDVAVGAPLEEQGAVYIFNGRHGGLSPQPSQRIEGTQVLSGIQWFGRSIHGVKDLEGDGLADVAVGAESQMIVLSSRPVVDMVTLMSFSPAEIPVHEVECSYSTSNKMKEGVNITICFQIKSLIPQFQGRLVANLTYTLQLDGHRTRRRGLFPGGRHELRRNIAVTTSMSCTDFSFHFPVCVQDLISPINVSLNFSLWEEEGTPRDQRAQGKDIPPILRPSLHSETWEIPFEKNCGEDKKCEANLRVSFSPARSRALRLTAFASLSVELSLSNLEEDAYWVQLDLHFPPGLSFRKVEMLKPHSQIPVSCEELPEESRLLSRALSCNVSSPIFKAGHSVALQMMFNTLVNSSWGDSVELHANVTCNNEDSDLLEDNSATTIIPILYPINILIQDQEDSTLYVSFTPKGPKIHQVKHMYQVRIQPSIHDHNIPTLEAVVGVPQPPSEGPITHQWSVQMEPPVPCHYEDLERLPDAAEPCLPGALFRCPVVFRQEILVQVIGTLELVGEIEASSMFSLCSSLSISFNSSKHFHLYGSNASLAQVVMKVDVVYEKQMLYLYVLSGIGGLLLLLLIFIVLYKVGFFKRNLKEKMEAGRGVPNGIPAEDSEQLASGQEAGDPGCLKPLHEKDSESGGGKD
T1 sequence (P05107 23-769 partner): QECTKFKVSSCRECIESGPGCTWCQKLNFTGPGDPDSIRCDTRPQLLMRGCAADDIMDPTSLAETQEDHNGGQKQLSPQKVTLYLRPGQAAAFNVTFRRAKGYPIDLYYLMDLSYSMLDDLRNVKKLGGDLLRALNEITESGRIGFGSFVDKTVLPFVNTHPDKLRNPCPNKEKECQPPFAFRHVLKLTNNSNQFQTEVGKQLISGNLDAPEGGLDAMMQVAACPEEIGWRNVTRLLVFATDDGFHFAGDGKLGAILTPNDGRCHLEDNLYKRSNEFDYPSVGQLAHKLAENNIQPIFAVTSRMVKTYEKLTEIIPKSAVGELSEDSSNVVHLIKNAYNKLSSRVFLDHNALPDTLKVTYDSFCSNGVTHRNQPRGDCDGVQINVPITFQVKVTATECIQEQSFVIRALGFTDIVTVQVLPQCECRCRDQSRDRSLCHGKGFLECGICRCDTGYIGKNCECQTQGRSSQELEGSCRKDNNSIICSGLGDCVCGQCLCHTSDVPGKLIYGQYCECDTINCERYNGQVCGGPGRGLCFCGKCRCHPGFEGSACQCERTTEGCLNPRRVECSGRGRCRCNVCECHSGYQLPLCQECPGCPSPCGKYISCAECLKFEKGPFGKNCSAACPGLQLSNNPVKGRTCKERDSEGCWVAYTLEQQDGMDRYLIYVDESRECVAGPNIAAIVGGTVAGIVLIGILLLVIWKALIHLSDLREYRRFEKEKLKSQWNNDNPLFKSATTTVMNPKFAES

For `CN(CCCN1CCCC1=O)C(=O)C1CC1c1ccc(Sc2ccccc2N2CCOCC2)c(C(F)(F)F)c1` (racemic) [Example 13, (±)-(2-Morpholin-1-ylphenyl)[2-trifluoromethyl-2-(trans-(2-((3-(1-pyrrolidin-2-onyl)-propyl-N-methylamino)carbonyl)cycloprop-1-yl)phenyl]sulfide], the inhibition at 4 µM ([1]; @ 4 μM compound) was 93% and the inhibition at 1 µM [2] was 86%.
Work on `O=C(NCCCN1CCCC1=O)C1CC1c1ccc(Sc2ccccc2N2CCOCC2)c(Cl)c1` (racemic) [Example 8, (±)-(2-Morpholin-1-ylphenyl)[2-chloro-4-(trans-(2-((3-(1-pyrrolidin-2-onyl)-prop-1-ylamino)carbonyl)cycloprop-1-yl)phenyl]sulfide] yielded an inhibition at 2 µM ([1]; @ 2 μM compound) of 94%, an inhibition at 4 µM ([1]; @ 4 μM compound) of 94% and an inhibition at 4 µM [2] of 70%.
For “(±)-(2-Piperidin-1-ylphenyl)[2-trifluoromethyl-4-(trans-(2-((3-(1-pyrrolidin-2-onyl)-prop-1-ylamino)carbonyl)cycloprop1-yl)phenyl]sulfide [Example 9]”, the “% inhibition” value ([1]; @ 2 μM compound) was 97% @ 2 μM and the “% inhibition” value [2] was 89% @ 2 μM.
In the case of `CC(C)c1ccccc1Sc1ccc(C2CC2C(=O)NCCC(=O)O)c(Cl)c1Cl` (racemic) [Example 16, (±)-(2-Isopropylphenyl)[2,3-dichloro-4-(trans-(2-(2-carboxyethylamino)carbonyl)cycloprop-1-yl)phenyl]sulfide], the inhibition at 2 µM ([1]; @ 2 μM compound) is reported as 96% and the inhibition at 2 µM [2] is reported as 88%.
With “(±)-(3-Morpholin-1-ylphenyl)[2-trifluoromethyl-4-(trans-(2-((3-(1-pyrrolidin-2-onyl)-prop-1-ylamino)carbonyl)cycloprop-1-yl)phenyl]sulfide [Example 11]” the “% inhibition” value ([1]; @ 4 μM compound) was 96% @ 4 μM and the “% inhibition” value [2] was 86% @ 2 μM.
`O=C(NCCCN1CCCC1=O)C1CC1c1ccc(Sc2ccccc2N2CCCCC2)c(C(F)(F)F)c1` (racemic) [Example 9, (±)-(2-Piperidin-1-ylphenyl)[2-trifluoromethyl-4-(trans-(2-((3-(1-pyrrolidin-2-onyl)-prop-1-ylamino)carbonyl)cycloprop1-yl)phenyl]sulfide] gave an inhibition at 4 µM ([1]; @ 4 μM compound) of 95% and an inhibition at 4 µM [2] of 76%.
Compound `O=C(NCCCN1CCCC1=O)C1CC1c1ccc(Sc2ccccc2Br)c(Cl)c1Cl` (racemic) [Example 14, (±)-(2-Bromophenyl)[2,3-dichloro-4-(trans-(2-((3-(1-pyrrolidin-2-onyl)-prop-1-ylamino)carbonyl)cycloprop-1-yl)phenyl]sulfide] has an inhibition at 4 µM ([1]; @ 4 μM compound) of 92% and an inhibition at 1 µM [2] of 80%.
`CC(C)c1ccccc1Sc1ccc(C2CC2C(=O)N2CCC(C(=O)O)CC2)c(Cl)c1Cl` (racemic) [Example 18, (±)-(2-Isopropylphenyl)[2,3-dichloro-4-(trans-(2-(4-carboxypiperidin-1-yl)carbonyl)cycloprop-1-yl)phenyl]sulfide] showed an inhibition at 2 µM ([1]; @ 2 μM compound) of 93% and an inhibition at 2 µM [2] of 84%.
